Test results as given in PMC10428001 (Cancer research, 2022).
“And” between values parts separate entries of the source, which are not always exact repeats. Identical values can stand only once. Like-named read-outs stand apart in the source and are kept apart here.

How the values were obtained:
[1] = tested on: Ba/F3 cells HER2 A775_G776insYVMA; assay: Ba/F3 cell viability; assay type: cell-based; details: read-out: IC50 (average ± SD)
[2] = tested on: Ba/F3 cells WT EGFR (+ rhEGF); assay: Ba/F3 cell viability; assay type: cell-based; details: read-out: IC50 (average ± SD)
[3] = tested on: Ba/F3 cells HER2 amplification; assay: Ba/F3 cell viability; assay type: cell-based; details: read-out: IC50 (average ± SD)
Ba/F3 cells HER2 S310F = assay: Ba/F3 cell viability; assay type: cell-based; details: read-out: IC50 (average ± SD)
Ba/F3 cells HER2 L755S = assay: Ba/F3 cell viability; assay type: cell-based; details: read-out: IC50 (average ± SD)
[4] = tested on: Ba/F3 cells HER2 G776delinsVC; assay: Ba/F3 cell viability; assay type: cell-based; details: read-out: IC50 (average ± SD)
[5] = tested on: Ba/F3 cells HER2 M774delinsWLV; assay: Ba/F3 cell viability; assay type: cell-based; details: read-out: IC50 (average ± SD)
Ba/F3 cells HER2 V862I = assay: Ba/F3 cell viability; assay type: cell-based; details: read-out: IC50 (average ± SD)
[6] = tested on: Ba/F3 cells HER2 P780_Y781insGSP; assay: Ba/F3 cell viability; assay type: cell-based; details: read-out: IC50 (average ± SD)
[7] = tested on: WT EGFR vs all HER2 mutants Ba/F3 cells; assay: Selectivity index from Ba/F3 IC50 ratios; assay type: cell-based; details: average over HER2 mutants
Ba/F3 cells HER2 V777L = assay: Ba/F3 cell viability; assay type: cell-based; details: read-out: IC50 (average ± SD)
HER2 mutant lung cancer = details: phase II trial, patients with lung cancer harboring HER2 exon 20 mutations ref 34; cited from earlier work
A-431 = assay: Cancer cell viability; assay type: cell-based, human; details: read-out: IC50 (average ± SD); A-431, epidermoid, EGFR amp, 72 h
DFCI 429 = assay: Patient-derived cancer cell viability; assay type: cell-based, human; details: read-out: IC50 (average ± SD)
WT HER2 = WT HER2 (Homo sapiens, UniProt P04626); details: purified kinase 5 nmol/L, 100 μmol/L ATP
WT HER2, sequence (P04626 720-987 limits assumed): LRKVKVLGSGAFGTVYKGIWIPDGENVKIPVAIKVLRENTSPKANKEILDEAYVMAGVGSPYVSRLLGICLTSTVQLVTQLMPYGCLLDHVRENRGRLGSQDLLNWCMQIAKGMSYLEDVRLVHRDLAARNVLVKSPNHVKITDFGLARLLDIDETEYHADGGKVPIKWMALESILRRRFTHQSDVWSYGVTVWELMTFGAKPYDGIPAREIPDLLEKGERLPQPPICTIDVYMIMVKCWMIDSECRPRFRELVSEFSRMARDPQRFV

BT-474 = assay: Cancer cell viability; assay type: cell-based, human; details: read-out: IC50 (average ± SD)
DFCI 315 [8] = assay: AO/PI live/dead staining of tumor spheroids; assay type: cell-based, human; details: DFCI 315 tumor spheroids, 5 days
H1781 = assay: Cancer cell viability; assay type: cell-based, human; details: read-out: IC50 (average ± SD)
MCF7 = assay: Cancer cell viability; assay type: cell-based, human; details: read-out: IC50 (average ± SD)
[9] = tested on: Ba/F3 cells HER2 755_757LREdelinsRP; assay: Ba/F3 cell viability; assay type: cell-based; details: read-out: IC50 (average ± SD)
SKBR3 = assay: Cancer cell viability; assay type: cell-based, human; details: read-out: IC50 (average ± SD)
[10] = tested on: HER YVMA Ba/F3 cells containing a concurrent C805S mutation; assay: Ba/F3 cell viability, concurrent C805S mutation; assay type: cell-based; details: HER YVMA Ba/F3 cells with concurrent C805S mutation
HER2 [11] = molecular target: T1, HER2 (Homo sapiens, UniProt P04626); details: Calu-3 cells
T1 sequence (P04626 23-1255): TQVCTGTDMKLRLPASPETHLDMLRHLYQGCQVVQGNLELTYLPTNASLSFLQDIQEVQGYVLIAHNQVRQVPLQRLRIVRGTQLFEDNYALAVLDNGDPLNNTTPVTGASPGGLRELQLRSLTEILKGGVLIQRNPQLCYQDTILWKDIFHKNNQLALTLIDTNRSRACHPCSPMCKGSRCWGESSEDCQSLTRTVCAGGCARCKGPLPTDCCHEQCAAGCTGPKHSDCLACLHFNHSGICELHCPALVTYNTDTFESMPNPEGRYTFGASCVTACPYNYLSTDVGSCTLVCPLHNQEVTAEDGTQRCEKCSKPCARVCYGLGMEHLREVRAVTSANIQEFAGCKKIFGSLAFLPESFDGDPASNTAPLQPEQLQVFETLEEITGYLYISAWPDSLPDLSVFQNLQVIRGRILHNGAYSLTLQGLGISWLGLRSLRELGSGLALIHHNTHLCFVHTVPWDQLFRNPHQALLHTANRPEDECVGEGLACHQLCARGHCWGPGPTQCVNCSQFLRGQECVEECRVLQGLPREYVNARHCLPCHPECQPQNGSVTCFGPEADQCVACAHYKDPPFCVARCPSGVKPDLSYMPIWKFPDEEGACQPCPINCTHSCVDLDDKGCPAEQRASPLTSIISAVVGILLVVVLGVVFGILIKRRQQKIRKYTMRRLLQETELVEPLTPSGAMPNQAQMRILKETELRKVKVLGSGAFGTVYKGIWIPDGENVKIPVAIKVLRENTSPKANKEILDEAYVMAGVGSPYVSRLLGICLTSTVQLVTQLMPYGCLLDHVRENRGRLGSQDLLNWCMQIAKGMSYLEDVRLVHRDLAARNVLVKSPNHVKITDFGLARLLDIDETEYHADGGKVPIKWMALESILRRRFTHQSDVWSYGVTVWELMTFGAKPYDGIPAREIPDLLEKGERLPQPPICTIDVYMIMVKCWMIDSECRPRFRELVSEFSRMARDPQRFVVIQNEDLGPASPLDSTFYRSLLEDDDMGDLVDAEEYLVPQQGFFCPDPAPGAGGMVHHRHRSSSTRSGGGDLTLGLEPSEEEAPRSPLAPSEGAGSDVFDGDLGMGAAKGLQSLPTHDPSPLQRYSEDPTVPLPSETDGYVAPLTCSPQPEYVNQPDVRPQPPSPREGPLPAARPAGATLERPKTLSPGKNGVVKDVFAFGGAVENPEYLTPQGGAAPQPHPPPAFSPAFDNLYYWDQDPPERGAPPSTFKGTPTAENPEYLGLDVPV

HER2 [12] = molecular target: T1, HER2; details: Calu-3 cells, in the presence of cycloheximide
[13] = Pharmacokinetic properties in mice; assay type: in vivo
DFCI 315 [14] = assay: Patient-derived tumor spheroid viability; assay type: cell-based, human; details: read-out: IC50 (average ± SD); DFCI 315, NSCLC, HER2 ins, 6 days
Calu-3 tumors [15] = assay: Calu-3 xenograft efficacy; assay type: in vivo; details: Calu-3 in NCr nude mice, oral, 39 days; JBJ-08-178-01 at 50 mg/kg BID
Calu-3 tumors [16] = assay: TUNEL assay in Calu-3 tumors; assay type: in vivo, NCr nude mice; details: 50 mg/kg BID, 3 days dosing
NCI-N87 = assay: Cancer cell viability; assay type: cell-based, human; details: read-out: IC50 (average ± SD)
[17] = tested on: Ba/F3 cells harboring various HER2 exon 20 insertions or amplification; details: read-out: IC50 across all exon 20 mutants or amplification, cell growth
Calu-3 [18] = assay: Caspase-3/7 activity, live-cell imaging; assay type: cell-based, human; details: Calu-3, live-cell imaging, 3 days
Calu-3 [19] = assay: Cancer cell viability; assay type: cell-based; details: Homo sapiens, Calu-3, 72 h, read-out: IC50 (average ± SD)
H1819 = assay: Cancer cell viability; assay type: cell-based; details: Homo sapiens, NCI-H1819, 72 h, read-out: IC50 (average ± SD)
[20] = Ba/F3 HER2 A775_G776insYVMA, 3 days
[21] = Ba/F3 WT EGFR (+ rhEGF 10 ng/mL), 3 days
[22] = Ba/F3 HER2 amplification, 3 days
[23] = Ba/F3 HER2 G776delinsVC, 3 days
[24] = Ba/F3 HER2 M774delinsWLV, 3 days
[25] = Ba/F3 HER2 P780_Y781insGSP, 3 days

C=CC(=O)N1CCC[C@@H](n2nc(C(=O)Nc3ccc(CC(=O)N(C)C)c(C)c3C)c3c(N)ncnc32)C1 [TAS0728]
IC50 [1, 20]: 256 ± 175 nM | IC50 [2, 21]: 399 ± 77.3 nM | IC50 [3, 22]: 288 ± 20.6 nM | IC50 (Ba/F3 cells HER2 S310F; Ba/F3 HER2 S310F, 3 days): 238 ± 95 nM | IC50 (Ba/F3 cells HER2 L755S; Ba/F3 HER2 L755S, 3 days): 3760 ± 3080 nM | IC50 [4, 23]: 626 ± 130 nM | IC50 [5, 24]: 894 ± 509 nM | IC50 (Ba/F3 cells HER2 V862I; Ba/F3 HER2 V862I, 3 days): 1320 ± 506 nM | IC50 [6, 25]: 80.1 ± 27 nM | Selectivity index (IC50 ratio = WT EGFR ÷ all HER2 mutants) [7]: 0.48 | IC50 (Ba/F3 cells HER2 V777L; Ba/F3 HER2 V777L, 3 days): 19.2 ± 12.2 nM

COc1cc2ncnc(Nc3ccc(F)c(Cl)c3)c2cc1NC(=O)/C=C/CN1CCCCC1 [dacomitinib]
overall response rate (HER2 mutant lung cancer): 12%

CCOc1cc2ncc(C#N)c(Nc3ccc(Oc4ccn5ncnc5c4)c(C)c3)c2cc1NC(=O)/C=C/CN(C)C [JBJ-08-178-01]
IC50 [1, 20]: 13.6 ± 2.24 nM | IC50 [2, 21]: 368 ± 103 nM | IC50 [3, 22]: 15.3 ± 11.4 nM | IC50 (A-431): 378 ± 77.1 nM | IC50 (Ba/F3 cells HER2 S310F; Ba/F3 HER2 S310F, 3 days): 41.5 ± 13.4 nM | IC50 (DFCI 429; DFCI 429, NSCLC, HER2 amp, 3 days): 252 ± 179 nM | inhibition of WT HER2 in biochemical inhibition assays (WT HER2): potently inhibited WT HER2 | IC50 (Ba/F3 cells HER2 L755S; Ba/F3 HER2 L755S, 3 days): 140 ± 45.3 nM | IC50 (BT-474; BT-474, breast cancer, HER2 amp, 72 h): 43.7 ± 11.1 nM | PI-positive dead cells (DFCI 315 [8]): significantly increased PI-positive dead cells | IC50 (H1781; H1781, NSCLC, HER2 ins, 72 h): 151 ± 52.7 nM | IC50 (MCF7; MCF7, breast cancer, no ERBB mutation, 72 h): 967 ± 429 nM | IC50 ([9]; Ba/F3 HER2 755_757LREdelinsRP, 3 days): 7.24 ± 2.28 nM | IC50 (SKBR3; SKBR3, breast cancer, HER2 amp, 72 h): 79.4 ± 56.5 nM | growth inhibition [10]: did not inhibit the growth | IC50 [4, 23]: 6.01 ± 2.94 nM | HER2 endocytosis (pHrodo fluorescence signal) (HER2 [11]): dramatic increase of fluorescence signal in the cytoplasm | protein stability of HER2 (HER2 [12]): decreased protein stability of HER2 compared with vehicle | AUCINF_obs ([13]; IV (2 mg/kg)): 323,166 min*ng/mL | AUClast ([13]; IV (2 mg/kg)): 317,601 min*ng/mL | CI_obs ([13]; IV (2 mg/kg)): 6.26 mL/min/kg | Cmax ([13]; IV (2 mg/kg)): 5.68 µM | MRTINF_obs ([13]; IV (2 mg/kg)): 1.42 h | T1/2 ([13]; IV (2 mg/kg)): 1.41 h | Tmax ([13]; IV (2 mg/kg)): 0.36 h | Vss_obs ([13]; IV (2 mg/kg)): 0.5 L/kg | AUCINF_obs ([13]; PO (10 mg/kg)): 243,219 min*ng/mL | AUClast ([13]; PO (10 mg/kg)): 166,787 min*ng/mL | CI_obs ([13]; PO (10 mg/kg)): 48.87 mL/min/kg | Cmax ([13]; PO (10 mg/kg)): 1.12 µM | F ([13]; PO (10 mg/kg)): 10% | T1/2 ([13]; PO (10 mg/kg)): 3.65 h | Tmax ([13]; PO (10 mg/kg)): 2.33 h | IC50 (DFCI 315 [14]): 456 ± 117 nM | IC50 [5, 24]: 21 ± 12 nM | tumor growth (Calu-3 tumors [15]): comparable tumor regression with neratinib | IC50 (Ba/F3 cells HER2 V862I; Ba/F3 HER2 V862I, 3 days): 284 ± 118 nM | cell apoptosis (TUNEL) (Calu-3 tumors [16]): significantly increased cell apoptosis compared with vehicle | IC50 (NCI-N87; NCI-N87, HER2 amp, 72 h): 1.2 nM | IC50 [17]: < 50 nM | IC50 [6, 25]: 7.38 ± 2.66 nM | Selectivity index (IC50 ratio = WT EGFR ÷ all HER2 mutants) [7]: 6.8 and 6.83 | IC50 (Ba/F3 cells HER2 V777L; Ba/F3 HER2 V777L, 3 days): 2.71 ± 0.41 nM | apoptosis (caspase-3/7) (Calu-3 [18]): rapid and greater degree of apoptosis compared with cells treated with poziotinib, neratinib, or tucatinib

Cc1cc(Nc2ncnc3ccc(NC4=NC(C)(C)CO4)cc23)ccc1Oc1ccn2ncnc2c1 [tucatinib]
IC50 ([1]; Mus musculus, BaF3, 72 h): 269 ± 88.1 nM | IC50 ([2]; Mus musculus, BaF3, 72 h): 5180 ± 2520 nM | IC50 ([3]; Mus musculus, BaF3, 72 h): 126 ± 81.8 nM | IC50 (Ba/F3 cells HER2 S310F; Mus musculus, BaF3, 72 h): 371 ± 168 nM | IC50 (DFCI 429; Homo sapiens, 72 h): 2790 nM | IC50 (Ba/F3 cells HER2 L755S; Mus musculus, BaF3, 72 h): 2090 ± 981 nM | IC50 (BT-474; Homo sapiens, BT-474, 72 h): 1730 nM | IC50 (Calu-3 [19]): 1900 nM | IC50 (H1781; Homo sapiens, NCI-H1781, 72 h): 3910 nM | IC50 (MCF7; Homo sapiens, MCF7, 72 h): 11300 nM | IC50 ([9]; Mus musculus, BaF3, 72 h): 102 ± 23.6 nM | IC50 (SKBR3; Homo sapiens, SK-BR-3, 72 h): 840 ± 918 nM | IC50 ([4]; Mus musculus, BaF3, 72 h): 97.8 ± 43.3 nM | IC50 (H1819): 521 ± 551 nM | IC50 ([5]; Mus musculus, BaF3, 72 h): 683 ± 288 nM | tumor growth (Calu-3 tumors [15]): less efficacious than other covalent inhibitors | IC50 (Ba/F3 cells HER2 V862I; Mus musculus, BaF3, 72 h): 1940 ± 1110 nM | IC50 (NCI-N87; Homo sapiens, NCI-N87, 72 h): 16.2 ± 2.4 nM | IC50 ([6]; Mus musculus, BaF3, 72 h): 131 ± 37.3 nM | Selectivity index (IC50 ratio = WT EGFR ÷ all HER2 mutants) [7]: 8.91 | IC50 (Ba/F3 cells HER2 V777L; Mus musculus, BaF3, 72 h): 7.2 ± 0.57 nM
